According to patent US8460867B2, “Methods of treating psychosis and schizophrenia based on polymorphisms in the CNTF gene” (Novartis AG, priority 2001, dated 2013):

B1: CNTF: Ciliary Neurotrophic Factor, survival factor for neuronal cell types, member of the interleukin-6 cytokine family (protein, UniProt P26441 1-200, looked up)
Ciliary neurotrophic factor: MAFTEHSPLTPHRRDLCSRSIWLARKIRSDLTALTESYVKHQGLNKNINLDSADGMPVASTDQWSELTEAERLQENLQAYRTFHVLLARLLEDQQVHFTPTEGDFHQAIHTLLLQVAAFAYQIEELMILLEYKIPRNEADGMPINVGDGGLFEKKLWGLKVLQELSQWTVRSIHDLRFISSHQTGIPARGSHYIANNKKM

Key:
[1] = system: schizophrenic patients; assay: Clinical trial of Iloperidone in schizophrenic patients, pharmacogenetic analysis by CNTF 103 G>A genotype; format: in vivo, human
From the text: In an effort to identify genetic factors that may associate with treatment response to Iloperidone, the relationship between a polymorphism in the CNTF (ciliary neurotrophic factor) gene (located on 11q12.2, the polymorphism being 103 G>A in GenBank sequence X55890 (Version 1), see PubMed: 9285965) and the clinical response to the antipsychotic Iloperidone in a clinical trial was investigated. This trial was a randomized, double-blind, placebo- and risperidone-controlled, multicenter study to evaluate the efficacy and safety of two non-overlapping dose ranges of lloperidone (12 or 16 mg/d and 20 or 24 mg/d and risperidone (6 or 8 mg/d) compared with placebo, given twice-daily (b.i.d) for 42 days to schizophrenic patients followed by a long-term treatment phase with lloperidone given once daily (q.d) at doses of 4, 8, 12, 16, or 24 mg/d for 46 weeks to patients with schizophrenia.
Pharmacogenetic analysis for candidate gene polymorphisms was conducted in Phase II of the clinical trial. It was determined whether the CNTF (ciliary neurotrophic factor) 103 G>A polymorphism (GenBank sequence X55890 (Version 1)) 103 G>A, (expressed protein alteration FS63 TER) was associated with any of the clinical parameters of efficacy studied in the course of the clinical trial and specifically changes in the BPRSA, Total PANNS, Positive PANNS, Negative PANNS and General PANNS scales.
A total of 207 unique blood samples were collected from the patients at the trial sites. The DNA was extracted by Covance (Geneva) using the PUREGENE™ DNA Isolation Kit (D-50K). The CNTF 103 G>A polymorphism (GenBank sequence X55890 (Version 1)) polymorphism was described by Takahashi, see, Takahashi et al. Nature Genet. 7: 79-84, 1994.
The probe sets for genotyping were designed and synthesized by Third Wave Technologies, Inc (Madison, Wis.). […]

[2] = system: ob/ob mice; conditions: systemic administration; cited from earlier work
[3] = system: db/db mice; conditions: which lack a functional leptin receptor; cited from earlier work
[4] = system: pmn/pmn mice; conditions: also when degenerative alterations were already present; cited from earlier work
[5] = system: mice with diet-induced obesity; conditions: partially resistant to leptin; cited from earlier work

Molecule	association of Total PANSS and BPRSA with the CNTF 103 G>A polymorphism ([1]; 12-16 mg dose (Group A), analysis of variance within treatments, p<0.001)	response of the GG type versus the placebo ([1]; 12-16 mg treatment group, GG type of the CNTF gene, p<0.001)	treatment response (BPRSA and Total PANNS scales), GG type versus non-GG type of the CNTF gene ([1]; 12-16 mg treatment group, schizophrenic patients, 42 days b.i.d.)	induction of the tis-11 primary response gene in the arcuate nucleus [2]	obesity-related phenotypes [3]	motor function and morphologic symptoms of neural degeneration [4]	obesity-related phenotypes [5]
COc1cc(C(C)=O)ccc1OCCCN1CCC(c2noc3cc(F)ccc23)CC1 [Iloperidone]	significantly associated	highly significant	responded significantly better than the non-GG type				
LEP: leptin (LEP) cytokine				rapid induction			
B1				rapid induction	reduced obesity-related phenotypes	successfully improved motor function and reduced the morphologic symptoms of neural degeneration	reduced obesity-related phenotypes
